Positions of bridges follow the written chain, without caps; N, C: chain ends. Non-standard residues stand in square brackets, D forms with d. Residues, ends and D or L forms follow the SMILES beside them. Chains are numbered I, II in the order given. *: point of attachment. PEG6 = NCCOCCOCCOCCOCCOCCOCCC(=O)O; Palmitoyl = CCCCCCCCCCCCCCCC(=O)*

The test system of one data set is PI3K pathway (pAKT). Kind of data set: PI3K pathway activation, western blot of phosphorylated AKT (pAKT). It is filed as cell-based, mouse. Particulars: 6 h of treatment, vs control conditions. The protocol:
For western blot, cells were cultured in 6 well plates at a density of approximately 900,000 cells/well for 14 DIV before being treated. Treatments were added for 2, 4, 6, 8, 12 or 24 h in vitro before protein was harvested. For TrkB inhibitor studies, cells were cultured for 14 DIV and then treated with a TrkB specific inhibitor, K-252a (Sigma Aldrich), for 1 hour prior to being treated with the different conditions mentioned above. Protein was extracted after six hours of treatment.
Western Blot. Protein was extracted from primary neuronal cultures with Halt Protease and Phosphatase Inhibitor Cocktail (Thermo Scientific) and a BCA assay (Thermo Scientific) was performed to determine protein content of each sample. Cell protein was loaded into and separated using a 4-20% SDS-PAGE gel (Bio-Rad). It was then electrotransferred from the gel to a nitrocellulose membrane (Bio-Rad). The membranes were blocked with 5% milk solution (Bio-Rad) for 30 minutes followed by an overnight incubation with primary antibodies at 4° C. […] Protein signals were detected using Radiance Bioluminescent ECL substrate (Azure Biosystems). Densitometry analysis, standardized to total receptor content or Actin as a control for protein loading, was performed using ImageJ software.^3 For quantification, triplicate samples were analyzed and at least two different experiments were conducted.

In data set [1] the test system is primary mouse cortical neurons. The experiment in a line: Multi-electrode array (MEA) electrophysiology of neuronal cultures. It is filed as cell-based. Particulars: for spontaneous firing frequency: 30 days in vitro, relative to control condition; for network burst duration / spikes per network burst: over time, vs control media. The protocol:
Electrophysiology—Multi Electrode Array (MEA) Plates. For 2D electrophysiology studies, 12 well MEA plates with 64 electrodes per well were coated with PEI and laminin according to Axion Biosystems protocols.^5 Embryonic primary neurons were seeded at a density of 60,000 cells/well and cultured during 14 DIV. On day 14, cells were treated with BDNF protein, BDNF PA, BDNF Peptide, or starvation media. Every 5 days, half of the media was removed from each well and replaced with fresh media containing additional treatment. Spontaneous network and synchronized activity was recorded using Axion Biosystems Maestro 768 channel amplifier and Axion Integrated Studios (AxIS) v2.4 software. The amplifier recorded from all channels simultaneously using a gain of 1200× and a sampling rate of 12.5 kHz/channel. After passing the signal through a Butterworth band-pass filter (300-5000 Hz) on-line spike detection (threshold=6× the root-mean-square of noise on each channel) was done with the AxIS adaptive spike detector. All recordings were conducted at 37° C. with appropriate 5% CO2/95% O2. Spontaneous network activity was recorded for 5 min each day starting at 10 DIV. Active electrodes were defined as having >5 spikes/min and only wells with over 10 active electrodes during the baseline-recording period were used in the analysis. Synchronized activity was defined as spike and burst activity that occurred on 25% of the electrodes or more in a well within 100 ms of each other. […] All data reflects well-wide averages, where the reported value of n represents the number of wells per condition.

As to `CCCCCCCCCCCCCCCC(=O)N[C@H](C(=O)N[C@H](C(=O)N[C@@H](C)C(=O)N[C@@H](C)C(=O)N[C@@H](CCC(=O)O)C(=O)N[C@@H](CCC(=O)O)C(=O)N[C@@H](CCC(=O)O)C(=O)N[C@@H](CCC(=O)O)C(=O)NCCOCCOCCOCCOCCOCCOCCC(=O)NCCCC[C@@H]1NC(=O)[C@H]2CCCN2C(=O)[C@H](CCCNC(=N)N)NC(=O)[C@H](CCCCN)NC(=O)[C@H](CCCCN)NC1=O)C(C)C)C(C)C` [BDNF PA, RKK(aK)(dP)-(PEG6 Spacer)-EEEEAAVV-C16 (SEQ ID NO: 5)] (I: Palmitoyl-VVAAEEEE[PEG6] / II: cyclo(KKKR[dP]); amide I:C-II:1), in the data set with PI3K pathway (pAKT), the “activation of the PI3K pathway (pAKT)” value is reported as “marked increase in activation”. Also, in data set [1], the spontaneous firing frequency result is “increased spontaneous firing frequency relative to the control condition”, the network burst duration entry was “longer network bursts” and the “spikes per network burst” value is recorded as “significantly more spikes per network burst”.

B1: BDNF protein: Human/Murine/Rat BDNF protein (Peprotech) (protein, UniProt P23560 19-247, looked up)
Neurotrophic factor BDNF …: APMKEANIRGQGGLAYPGVRTHGTLESVNGPKAGSRGLTSLADTFEHVIEELLDEDQKVRPNEENNKDADLYTSRVMLSSQVPLEPPLLFLLEEYKNYLDAANMSMRVRRHSDPARRGELSVCDSISEWVTAADKKTAVDMSGGTVTVLEKVPVSKGQLKQYFYETKCNPMGYTKEGCRGIDKRHWNSQCRTTQSYVRALTMDSKKRIGWRFIRIDTSCVCTLTIKRGR
In the case of B1, the “activation of the PI3K pathway (pAKT)” value in the data set with PI3K pathway (pAKT) is “marked increase in activation”. In addition, in data set [1], the spontaneous firing frequency result was “increased spontaneous firing frequency relative to the control condition”, the network burst duration result is “longer network bursts” and the “spikes per network burst” value is listed as “significantly more spikes per network burst”.

For the origin of these results see US12122811B2, “BDNF mimetic peptide amphiphiles” (Northwestern University, priority 2018, dated 2024).
